Data: PubChem BioAssay (NCI)
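Following 48 hours of exposure in 96-well plates, responses at five concentrations were used to interpolate endpoints linearly. GI50 is the concentration that inhibits growth by half. TGI marks complete inhibition of growth.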

How the values were obtained:
Test in all cases: inhibition of tumour cell growth, NCI panel, 48 h
UACC-257 melanoma = tested on: UACC-257 melanoma
EKVX NSCLC = tested on: EKVX NSCLC
SK-OV-3 ovarian = tested on: SK-OV-3 ovarian
OVCAR-5 ovarian = tested on: OVCAR-5 ovarian
TK-10 renal = tested on: TK-10 renal
K-562 leukemia = tested on: K-562 leukemia
ACHN renal = tested on: ACHN renal
A498 renal = tested on: A498 renal
SW-620 colon = tested on: SW-620 colon
NCI-H460 lung = tested on: NCI-H460 lung

Structure (SMILES) | TGI (UACC-257 melanoma) | TGI (EKVX NSCLC) | TGI (SK-OV-3 ovarian) | TGI (OVCAR-5 ovarian) | TGI (TK-10 renal) | TGI (K-562 leukemia) | TGI (ACHN renal) | TGI (A498 renal) | TGI (SW-620 colon) | TGI (NCI-H460 lung) | GI50 (UACC-257 melanoma) | GI50 (EKVX NSCLC) | GI50 (SK-OV-3 ovarian) | GI50 (OVCAR-5 ovarian) | GI50 (TK-10 renal) | GI50 (K-562 leukemia) | GI50 (ACHN renal) | GI50 (A498 renal) | GI50 (SW-620 colon) | GI50 (NCI-H460 lung)
O=NNc1ccc(S(=O)(=O)c2ccc3ccccc3c2)cn1 | > 100 µM | > 100 µM | > 100 µM | > 100 µM | > 100 µM | > 100 µM | > 100 µM | > 100 µM | > 100 µM | > 100 µM | – | – | – | – | – | – | – | – | – | –
C=CC(=O)Nc1cc2c(Nc3ccc(F)c(Cl)c3)ncnc2cc1C#CC(C)(C)N1CCN(C)CC1 | 5.56 µM | 4.39 µM | 4.59 µM | 6.17 µM | 2.03 µM | 6.59 µM | 4.26 µM | 3.94 µM | 4.61 µM | 6.69 µM | 3.96 µM | 0.246 µM | 0.953 µM | 1.04 µM | 0.0522 µM | 1.05 µM | 0.0779 µM | 1.21 µM | 2 µM | 2.91 µM
Cc1ccc(OC(=O)N2C/C(=C\c3ccccc3)C(=O)/C(=C/c3ccccc3)C2)cc1 | 69.5 µM | > 100 µM | 86.2 µM | > 100 µM | > 87.9 µM | > 51.7 µM | 80.9 µM | > 100 µM | 35.6 µM | > 100 µM | – | – | – | – | – | – | – | – | – | –
CN(C)CCN1CCc2c([nH]c3ccccc23)C1c1cccnc1 (centres undefined) | > 100 µM | > 100 µM | > 100 µM | > 100 µM | > 100 µM | > 100 µM | 50.9 µM | > 100 µM | > 100 µM | > 100 µM | – | – | – | – | – | – | – | – | – | –
O=C1Nc2ccc3c(c2/C1=C\c1cc2c(cc1Br)OCO2)OCO3 | – | 8.09 µM | 1.89 µM | 5.89 µM | 3.84 µM | > 35.9 µM | 6.55 µM | 1.08 µM | 3.47 µM | 1.35 µM | 0.685 µM | 0.639 µM | 0.512 µM | 1.55 µM | 1.52 µM | 0.179 µM | 0.689 µM | 0.287 µM | 0.357 µM | 0.35 µM
